Assay results published in patent US20240189287A1, “PERIPHERALLY RESTRICTED CB1 RECEPTOR BLOCKERS AND USES THEREOF” (BIONANOSIM (BNS) LTD, priority 2021, published 2024).
Where two headings read alike, the source gives them in different places.

Tests used:
CB1 receptor [1] = target: T1, CB1 receptor (Mus musculus (Mouse), UniProt P47746); assay: CB1 receptor radioligand binding assay, [3H]CP-55,940 displacement, mouse brain membranes; conditions: mouse (m) CB1 receptor; read-out: CB1R Ki (nM) (m)
Experimental: (§1) Radioligand binding assays: Binding affinity was determined by a radioligand binding assay. The different BB8-conjugates binding to CB1 and CB2 receptors was assessed in competition displacement assays using [^3H]CP-55.940 as the radioligand and crude membranes from mouse brain for CB1 receptor and human kidney cells for CB2 receptor.
(§2) CB1 receptor binding assay: Mouse brain membranes were used as the source material for CB1 receptors. The displacement of specifically bound tritiated CP-55.940 from these membranes using a standard filtration assay was used to determine the Ki values for the test compounds. Briefly. 20 μg of protein was incubated for 1 h at 30° C. in the presence of 0.5 nM [^3H]CP-55,940 and various concentrations (10^−5M-10^−11M) of test compound/control, final volume of 1 mL. The incubation was terminated by rapid filtration and washing, and the amount of specifically bound [^3H]CP-55,940 was determined. Briefly, membranes with bound [^3H]CP-55,940 were separated and washed from free ligand by vacuum filtration, adsorbing the membrane onto a Whatman glass microfiber filter paper ([…], Cat #1821271). Finally, the Whatman filter paper with adsorbed membranes was cut and placed in scintillation liquid (Ultima Gold) for 1 h at 25° C. followed by a β counter reading of bound [^3H]CP-55,940 radioligand. All data were in triplicates with Ki values determined using GraphPad Prism 7.02 analysis software. […] In some cases, membranes from human source were used to determine CB1 receptor binding affinity.

CB1 receptor [2] = target: CB1 receptor (Homo sapiens (Human), UniProt P21554); assay: CB1 receptor radioligand binding assay, membranes from human source; conditions: human (h) CB1 receptor; read-out: CB1R Ki (nM) (h)
Experimental: as §1, §2

P-gp (MDR1, ABCB1) = assay: MDR1-MDCK II cell permeation assay (bi-directional permeability, P-gp efflux); assay type: in vitro ADME; conditions: dog; for Papp at 2.5 h, 2 μM: A to B
Experimental: (§3) Test and reference compounds were diluted with transport buffer (HBSS with 10 mM Hepes, pH 7.4) from stock solution to a concentration of 2 μM (DMSO<1%) and applied to the apical or basolateral side of the cell monolayer. Permeation of the test compounds from A to B direction or B to A direction was determined in duplicate with/without P-gp inhibitor (GF120918, 10 μM). […] The plate was incubated for 2.5 hours in CO2 incubator at 37±1° C., with 5% CO2 at saturated humidity without shaking. In addition, the efflux ratio of each compound was also determined. Test and reference compounds were quantified by LC-MS/MS analysis based on the peak area ratio of analyte/IS.
(§4) The in vitro bi-directional permeability across MDR1-MDCKII cells including P-glycoprotein (Pgp, ABCB1) efflux in the presence and absence of a P-gp inhibitor is an indicator as to the tendency of an orally administered compound to penetrate the brain.

MDR1-MDCKII cells = assay: as above; assay type: in vitro ADME
Experimental: as §3, §4

[3] = Tissue distribution: brain, plasma and liver levels after oral dosing; assay type: in vivo, C57BL/6J mice; conditions: male, C57BL/6J, mouse, in vivo, po, 10 mg/kg
Experimental: Tissue distribution and pharmacokinetics: Tissue levels of antagonist: 3 male C57BL/6J mice (7-9 weeks, PO group) were used in this study. Mice were fasted prior to administration of test article and had access to food 4 hours post dosing. Appropriate amount of test article was accurately weighted and mixed with the appropriate volume of vehicle to get a clear oral solution. The formulation was prepared on the day of dosing, and mice were dosed via oral gavage up to 4 hr after formulation was prepared. After 1 hour, mice were scarified and about 200 μL blood was collected from cardiac puncture followed by plasma preparation. Brain and liver were removed and further processed. Dose formulation and sample analysis was performed by LC-MS/MS method.
The peripherality of selected BB8 conjugates (BNS) was evaluated in vivo measuring their respective brain, plasma, and liver levels 1 hr following 10 mg/kg oral administration.

CB2 receptor = CB2 receptor (Homo sapiens (Human), UniProt P34972); assay: CB2 receptor radioligand binding assay, [3H]CP-55,940 displacement, human kidney membranes; conditions: read-out: hCB2R Ki
Experimental: as §1
CB2 receptor binding assay: Human kidney membranes were used as the source material for CB2 receptors. The displacement of specifically bound tritiated CP-55,940 from these membranes using a standard filtration assay was used to determine the Ki values for the test compounds. Briefly, 1.25 μg of protein was incubated for 1.5 h at 30° C. in the presence of 0.5 nM [^3H]CP-55,940 and various concentrations (10^−5M-10^−11M) of test compound/control, final volume of 1 mL. The incubation was terminated by rapid filtration and washing, and the amount of specifically bound [^3H]CP-55,940 was determined. Briefly, membranes with bound [^3H]CP-55,940 were separated and washed from free ligand by vacuum filtration, adsorbing the membrane onto a Whatman glass microfiber filter paper ([…], Cat #1821271). Finally, the Whatman filter paper with adsorbed membranes was cut and placed in scintillation liquid (Ultima Gold) for 1 h at 25° C. followed by a β counter reading of bound [^3H]CP-55,940 radioligand. All data were in triplicates with Ki values determined using GraphPad Prism 7.02 analysis software.

CB1 receptor [4] = target: T1, CB1 receptor; assay: [35S]GTPγS binding assay for CB1 receptor, mouse brain membranes; assay type: biochemical; conditions: nature of binding: agonist/antagonist/inverse agonist
Experimental: For CB1 receptor-mouse brains were dissected and P2 membranes prepared and resuspended at ˜2 μg protein/μL in 1 ml assay buffer (50 mM Tris HCl, 9 mM MgCl2, 0.2 mM EDTA, 150 mM NaCl; pH 7.4). Ligand-stimulated [^35S]GTPγS binding was assayed as described previously (Tam et al., JCI 2010). Briefly, membranes (10 μg protein) were incubated in assay buffer containing 100 μM GDP, 0.05 nM [^35S]GTPγS, test compounds at various concentrations (CP55940/Rimonabant as controls and test compounds for BB8 conjugates), and 1.4 mg/mL fatty acid-free BSA in siliconized glass tubes. Membranes with bound ligand ([^35S]GTPγS) were separated from free ligand by vacuum filtration and were analyzed using β counter as described above. Non-specific binding was determined using 10 μM GTPS (cold GTP). Basal binding was assayed in the absence of the tested compound and in the presence of GDP.

HepG2 Cells = assay: Cell Viability Assay in HepG2 Cells at 72 h; assay type: cell-based, human; conditions: Homo sapiens, HepG2, 72 h; read-out: Relative IC50
Experimental: The liver plays a central role in transforming and clearing chemicals, and therefore is susceptible to toxicity of these agents. BNS808, BNS822 and other selected compounds were tested in the HepG2 assay using […] to evaluate cytotoxicity.

CYP 2D6 = CYP 2D6 (Homo sapiens (Human), UniProt P10635); assay: CYP inhibition in human liver microsomes; assay type: in vitro ADME; conditions: CYP isozyme 2D6, standard inhibitor
Experimental: To evaluate the in vitro CYP inhibition of BNS808 and BNS822, the compounds were tested in human liver microsomes that are rich in drug metabolizing enzymes, including CYPs 1A2, 2C9, 2C19, 2D6, 3A4.

[5] = MDCK-MDR1, pH 7.4, with GF120918, 10 μM, efflux ratio in the presence of P-gp inhibitor GF120918, read-out: MDR1 B:A/A:B (+P-gp inhibitor)
[6] = MDCK-MDR1, pH 7.4, efflux ratio, without P-gp inhibitor, read-out: MDR1 B:A/A:B

Sequence of CB2 receptor (P34972 whole entry): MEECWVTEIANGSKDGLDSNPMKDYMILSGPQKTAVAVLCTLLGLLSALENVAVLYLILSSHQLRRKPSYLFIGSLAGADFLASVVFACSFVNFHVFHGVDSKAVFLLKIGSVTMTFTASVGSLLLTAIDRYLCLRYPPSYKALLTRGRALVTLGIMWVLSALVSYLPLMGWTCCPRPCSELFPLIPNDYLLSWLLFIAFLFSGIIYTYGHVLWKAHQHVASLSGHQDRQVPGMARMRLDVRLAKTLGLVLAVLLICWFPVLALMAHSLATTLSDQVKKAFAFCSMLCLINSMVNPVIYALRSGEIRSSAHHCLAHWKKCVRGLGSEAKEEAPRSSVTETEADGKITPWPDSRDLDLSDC
Sequence of CB1 receptor (Homo sapiens (Human), UniProt P21554) (P21554 whole entry): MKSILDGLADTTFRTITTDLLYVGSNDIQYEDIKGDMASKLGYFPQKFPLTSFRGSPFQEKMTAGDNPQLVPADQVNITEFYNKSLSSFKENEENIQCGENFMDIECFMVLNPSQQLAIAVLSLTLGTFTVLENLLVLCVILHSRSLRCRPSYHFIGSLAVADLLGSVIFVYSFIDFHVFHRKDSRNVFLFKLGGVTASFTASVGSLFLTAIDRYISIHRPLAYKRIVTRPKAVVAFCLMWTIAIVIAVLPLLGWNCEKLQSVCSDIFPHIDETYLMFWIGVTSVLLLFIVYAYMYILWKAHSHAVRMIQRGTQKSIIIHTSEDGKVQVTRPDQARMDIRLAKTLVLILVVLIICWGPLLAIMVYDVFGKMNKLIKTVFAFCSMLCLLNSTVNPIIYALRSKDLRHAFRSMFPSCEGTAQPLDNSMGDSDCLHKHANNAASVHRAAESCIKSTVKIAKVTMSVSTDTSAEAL
T1 sequence (P47746 whole entry): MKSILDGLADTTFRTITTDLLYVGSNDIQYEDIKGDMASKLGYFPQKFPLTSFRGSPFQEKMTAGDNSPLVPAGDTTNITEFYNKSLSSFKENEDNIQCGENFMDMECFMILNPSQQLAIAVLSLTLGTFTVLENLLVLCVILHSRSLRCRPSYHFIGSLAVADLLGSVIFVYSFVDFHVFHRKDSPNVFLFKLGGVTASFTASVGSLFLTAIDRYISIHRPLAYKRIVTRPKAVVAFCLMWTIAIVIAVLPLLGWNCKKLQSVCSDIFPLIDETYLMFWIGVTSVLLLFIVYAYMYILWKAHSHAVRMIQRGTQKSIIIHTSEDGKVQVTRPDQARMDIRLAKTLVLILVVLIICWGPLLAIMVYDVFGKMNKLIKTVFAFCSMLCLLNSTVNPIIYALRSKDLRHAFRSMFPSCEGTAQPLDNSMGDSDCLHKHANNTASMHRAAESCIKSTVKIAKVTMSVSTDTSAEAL
Sequence of CYP 2D6 (P10635 whole entry): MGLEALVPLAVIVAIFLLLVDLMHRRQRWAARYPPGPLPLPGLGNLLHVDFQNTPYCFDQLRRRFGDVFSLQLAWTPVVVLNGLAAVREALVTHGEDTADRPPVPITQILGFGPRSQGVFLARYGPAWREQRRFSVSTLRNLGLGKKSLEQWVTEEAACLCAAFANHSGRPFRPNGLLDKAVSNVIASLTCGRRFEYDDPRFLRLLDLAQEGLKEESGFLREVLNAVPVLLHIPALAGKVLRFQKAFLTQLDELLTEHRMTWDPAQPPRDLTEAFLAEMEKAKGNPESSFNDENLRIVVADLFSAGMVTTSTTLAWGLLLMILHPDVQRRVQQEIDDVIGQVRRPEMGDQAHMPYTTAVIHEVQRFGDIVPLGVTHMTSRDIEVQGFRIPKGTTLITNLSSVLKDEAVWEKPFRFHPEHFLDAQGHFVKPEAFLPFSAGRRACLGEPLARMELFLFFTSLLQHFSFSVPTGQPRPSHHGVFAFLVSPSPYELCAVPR

| Structure (SMILES) | Ki (CB1 receptor [1]) | Ki (CB1 receptor [2]) | efflux ratio at 2.5 h, 2 μM (P-gp (MDR1, ABCB1); [5]) | Papp at 2.5 h, 2 μM (P-gp (MDR1, ABCB1); MDCK-MDR1, pH 7.4) | efflux ratio at 2.5 h, 2 μM (P-gp (MDR1, ABCB1); [6]) | P-gp substrate (MDR1-MDCKII cells) | Rank Papp (MDR1-MDCKII cells) | Kp at 1 h [3] | Ki (CB2 receptor) | mCB1R GTPγ[^35S] (activity) (CB1 receptor [4]) | IC50 (HepG2 Cells) | % Inhibition (CYP 2D6) |
| --- | --- | --- | --- | --- | --- | --- | --- | --- | --- | --- | --- | --- |
| O=C(NC1CCCOc2c1nn(-c1ccccc1Cl)c2-c1ccc(Cl)cc1)c1nc[nH]n1 (stereo not drawn) [BNS801, N-[2-(2-chlorophenyl)-3-(4-chlorophenyl)-5,6,7,8-tetrahydrooxepino[3,2-c]pyrazol-8-yl]-1H-1,2,4-triazole-3-carboxamide] | 805 nM | 232 nM |  |  |  |  |  |  |  |  |  |  |
| O=C(NC1CCCOc2c1nn(-c1ccccc1Cl)c2-c1ccc(Cl)cc1)c1cccnc1 (stereo not drawn) [BNS803, N-[2-(2-chlorophenyl)-3-(4-chlorophenyl)-5,6,7,8-tetrahydrooxepino[3,2-c]pyrazol-8-yl]pyridine-3-carboxamide] | 22.4 nM | 6.48 nM | 0.63 | 13.2 ×10⁻⁶ cm/s | 0.77 | No | High | 1.6 | > 9110 nM | Inverse agonist |  |  |
| CC(C)(Oc1ccc(Cl)cc1)C(=O)NC1CCCOc2c1nn(-c1ccccc1Cl)c2-c1ccc(Cl)cc1 (stereo not drawn) [BNS804, 2-(4-chlorophenoxy)-N-[2-(2-chlorophenyl)-3-(4-chlorophenyl)-5,6,7,8-tetrahydrooxepino[3,2-c]pyrazol-8-yl]-2-methyl-propanamide] | 1.16 nM | 1.96 nM |  |  |  |  |  |  | 5700 nM | Antagonist |  |  |
| O=C(NC1CCCOc2c1nn(-c1ccccc1Cl)c2-c1ccc(Cl)cc1)c1cnccn1 (stereo not drawn) [BNS805, N-[2-(2-chlorophenyl)-3-(4-chlorophenyl)-5,6,7,8-tetrahydrooxepino[3,2-c]pyrazol-8-yl]pyrazine-2-carboxamide] | 77.8 nM | 8.75 nM | 0.55 | 4.93 ×10⁻⁶ cm/s | 0.82 | Partial | Moderate |  | 8340 nM | Inverse agonist |  |  |
| O=C(NC1CCCOc2c1nn(-c1ccccc1Cl)c2-c1ccc(Cl)cc1)c1ncc[nH]1 (stereo not drawn) [BNS806, N-[2-(2-chlorophenyl)-3-(4-chlorophenyl)-5,6,7,8-tetrahydrooxepino[3,2-c]pyrazol-8-yl]-1H-imidazole-2-carboxamide] | 165 nM | 23.7 nM |  |  |  |  |  |  | > 9110 nM | Antagonist; In. Agonist >[c] |  |  |
| Cc1ccc(S(=O)(=O)NC2CCCOc3c2nn(-c2ccccc2Cl)c3-c2ccc(Cl)cc2)cc1 (stereo not drawn) [BNS807, N-[2-(2-chlorophenyl)-3-(4-chlorophenyl)-5,6,7,8-tetrahydrooxepino[3,2-c]pyrazol-8-yl]-4-methyl-benzenesulfonamide] | 10 nM | 1.4 nM |  |  |  |  |  |  | 1650 nM | Inverse agonist | 18000 nM |  |
| CS(=O)(=O)NC1CCCOc2c1nn(-c1ccccc1Cl)c2-c1ccc(Cl)cc1 (stereo not drawn) [BNS809, N-[2-(2-chlorophenyl)-3-(4-chlorophenyl)-5,6,7,8-tetrahydrooxepino[3,2-c]pyrazol-8-yl]methanesulfonamide] | 33.8 nM | 7.7 nM |  |  |  |  |  |  | > 9110 nM | Antagonist |  |  |
| C=C[C@H]1C[N@@]2CC[C@H]1C[C@@H]2[C@@H](O)c1ccnc2ccc(OC)cc12 [Quinidine, reference compound] |  |  |  |  |  |  |  |  |  |  |  | 96.2% |
